From PMC2867455 (Journal of medicinal chemistry, 2010)

Legend:
[1] = molecular target: T1, PFTase (Saccharomyces cerevisiae, UniProt P22007+P29703); assay: PFTase in vitro continuous-fluorescence assay; format: biochemical
T1 sequence (P22007 1-431): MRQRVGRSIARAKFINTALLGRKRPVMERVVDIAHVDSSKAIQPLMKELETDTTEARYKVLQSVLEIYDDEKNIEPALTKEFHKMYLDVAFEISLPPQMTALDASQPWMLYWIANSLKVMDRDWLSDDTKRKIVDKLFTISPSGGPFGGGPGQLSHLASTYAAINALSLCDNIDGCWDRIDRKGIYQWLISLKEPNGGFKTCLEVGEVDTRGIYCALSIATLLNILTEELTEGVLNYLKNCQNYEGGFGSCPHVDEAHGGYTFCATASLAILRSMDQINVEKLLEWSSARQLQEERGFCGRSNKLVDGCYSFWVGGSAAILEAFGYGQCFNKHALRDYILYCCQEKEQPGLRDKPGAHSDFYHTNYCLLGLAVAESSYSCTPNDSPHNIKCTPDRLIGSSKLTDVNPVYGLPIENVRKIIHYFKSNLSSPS
T1 sequence (P29703 1-316): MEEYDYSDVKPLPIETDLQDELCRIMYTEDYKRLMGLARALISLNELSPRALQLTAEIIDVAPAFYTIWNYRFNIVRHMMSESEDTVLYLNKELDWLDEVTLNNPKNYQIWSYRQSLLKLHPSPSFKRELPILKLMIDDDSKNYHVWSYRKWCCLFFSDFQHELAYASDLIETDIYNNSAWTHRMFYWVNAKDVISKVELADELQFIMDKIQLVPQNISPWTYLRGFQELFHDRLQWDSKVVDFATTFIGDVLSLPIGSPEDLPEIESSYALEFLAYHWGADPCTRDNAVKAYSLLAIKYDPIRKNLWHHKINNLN

[2] = test system: GFP-H-Ras; assay: Cell based analysis of GFP-H-Ras processing in MDCK cells
[3] = test system: MDCK cells
[4] = test system: mouse models of leukemia and melanoma; conditions: intra-peritoneal delivery; cited from earlier work
[5] = molecular target: PFTase; conditions: read-out: IC50 for PFTase; cited from earlier work
[6] = at concentrations as high as 100 µM, 0.04% Triton X-100

## OC(Cn1cncn1)(Cn1cncn1)c1ccc(F)cc1F [Fluconazole]
[1]; [6]
  PFTase inhibition (in words): little to no inhibition

## Clc1ccccc1C(c1ccccc1)(c1ccccc1)n1ccnc1 [Clotrimazole]
[1]; [6]
  PFTase inhibition (in words): little to no inhibition

## CC(=O)N1CCN(c2ccc(OCC3COC(Cn4ccnc4)(c4ccc(Cl)cc4Cl)O3)cc2)CC1 (stereo not shown) [Ketoconazole]
[1]; [6]
  PFTase inhibition (in words): little to no inhibition

## CCOC(=O)N1CCC(=C2c3ccc(Cl)cc3CCc3cccnc32)CC1 [Loratadine]
[2]; 25 µM, 24 h
  inhibition of GFP-H-Ras processing: appreciable inhibition of GFP-H-Ras processing
[2]; concentrations lower than 25 µM, 24 h
  inhibition of prenylation (GFP-H-Ras): did not manifest observable inhibition of prenylation

## Tetraiodophenolphthalein [TPIT]
[1]; continuous fluorescence assay
  PFTase inhibition (in words): not an inhibitor of PFTase

## Clc1ccc(COC(Cn2ccnc2)c2ccc(Cl)cc2Cl)c(Cl)c1 (stereo not shown) [Miconazole]
[2]; 10 µM, 48 h, cells remaining alive
  inhibition of GFP-H-Ras processing: significant inhibition of GFP-H-Ras processing
[3]
  toxicity to cells: toxicity and cell death
[4]
  survival in mouse models of leukemia and melanoma: promote survival

## CC(=O)OCC(=O)[C@@]1(O)CC[C@H]2[C@@H]3CCC4=CC(=O)CC[C@]4(C)[C@H]3C(=O)C[C@@]21C [Cortisone acetate]
[5]
  IC50: 14 µM
